# Measurements as given in PMC7392676 (BMC Microbiology, 2020).
# Experiments:
# Xff strain Temecula = format: cell-based, Xylella fastidiosa subsp. fastidiosa
# [1] = tested on: Xanthomonas axonopodis pv. vesicatoria; conditions: cited from earlier work
# [2] = tested on: Pseudomonas syringae pv. syringae; conditions: cited from earlier work
# Erwinia amylovora = conditions: cited from earlier work
# Xf = conditions: cited from earlier work
substance,measurement,setting,value
KDWEHLKDWEHLKDWEHL-OH [tag54],Log N0/N (log reduction of Xff cell viability),Xff strain Temecula,0 ± 0 log
same,antimicrobial activity against Xff cells (in words),Xff strain Temecula,did not show antimicrobial activity
same,MIC Xav,[1],> 100 µM
same,MIC Psa,[2],> 100 µM
same,MIC Ea,Erwinia amylovora,> 100 µM
dermaseptin,MIC or MBC against Xf,Xf,8 to 32 µg/mL
gomesin,MIC or MBC against Xf,Xf,4.5 to 9 µg/mL
magainin II,MIC or MBC against Xf,Xf,8 to 64 µg/mL
